Counter-ions that a name gives are not always drawn. Like-named read-outs stand apart in the source and are kept apart here.
Columns and labels:
[1] = target: T1, JAK3 (Homo sapiens, UniProt P52333); assay: JAK kinase assay, JAK3 enzyme; format: biochemical
T1 sequence (P52333 1-1124): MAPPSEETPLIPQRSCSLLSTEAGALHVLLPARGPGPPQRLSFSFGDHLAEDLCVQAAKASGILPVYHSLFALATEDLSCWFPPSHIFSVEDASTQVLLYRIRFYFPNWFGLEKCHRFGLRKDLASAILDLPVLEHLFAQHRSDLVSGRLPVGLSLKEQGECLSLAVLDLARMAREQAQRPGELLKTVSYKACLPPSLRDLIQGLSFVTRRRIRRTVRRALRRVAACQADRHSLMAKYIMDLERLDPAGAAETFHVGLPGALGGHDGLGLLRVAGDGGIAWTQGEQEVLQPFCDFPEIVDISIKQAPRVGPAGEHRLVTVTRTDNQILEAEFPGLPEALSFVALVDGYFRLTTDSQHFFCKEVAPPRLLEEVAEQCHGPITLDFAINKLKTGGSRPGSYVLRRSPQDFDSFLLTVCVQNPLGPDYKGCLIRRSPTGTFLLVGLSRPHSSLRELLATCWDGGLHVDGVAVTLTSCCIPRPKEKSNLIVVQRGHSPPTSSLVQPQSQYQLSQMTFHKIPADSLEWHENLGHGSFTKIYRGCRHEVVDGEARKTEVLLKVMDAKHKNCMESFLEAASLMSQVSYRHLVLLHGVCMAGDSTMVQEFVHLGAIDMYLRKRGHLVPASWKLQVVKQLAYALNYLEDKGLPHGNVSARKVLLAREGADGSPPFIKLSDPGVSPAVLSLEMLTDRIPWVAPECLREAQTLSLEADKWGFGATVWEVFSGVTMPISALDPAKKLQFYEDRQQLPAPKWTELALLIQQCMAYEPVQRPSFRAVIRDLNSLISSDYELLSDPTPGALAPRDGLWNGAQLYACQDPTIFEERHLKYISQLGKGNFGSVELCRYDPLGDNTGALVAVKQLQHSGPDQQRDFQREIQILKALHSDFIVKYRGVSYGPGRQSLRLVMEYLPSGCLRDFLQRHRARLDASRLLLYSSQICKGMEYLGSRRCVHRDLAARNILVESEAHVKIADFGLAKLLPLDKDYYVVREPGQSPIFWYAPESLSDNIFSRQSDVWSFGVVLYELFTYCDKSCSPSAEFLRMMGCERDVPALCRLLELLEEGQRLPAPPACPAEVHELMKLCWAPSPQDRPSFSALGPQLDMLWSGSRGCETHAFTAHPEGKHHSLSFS

[2] = target: ROCK1 (Homo sapiens, UniProt Q13464); assay: ROCK kinase inhibition assay, ROCK1 enzyme; format: biochemical;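 also: kinase reaction with 0.5 µM final ATP, 75 min at room temperature, remaining ATP read by luminescence, percent of DMSO-only control minus background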
[3] = target: ROCK2 (Homo sapiens, UniProt O75116); assay: biochemical
[4] = target: JAK2 (Homo sapiens, UniProt O60674); assay: JAK kinase assay, JAK2 enzyme; format: biochemical;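 also: JAK2 kinase reaction run 75 min at room temperature, leftover ATP read by Kinase-Glo luminescence, 11-point dilution series in 2.5% DMSO, percent of inhibitor-free DMSO control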
[5] = target: Rho Kinase; assay: ROCK kinase inhibition assay (Rho Kinase Activity, isoform not given); format: biochemical; settings: Table 15, mostly given as ranges
Method: All compounds were initially prepared as 10 mM stocks in anhydrous dimethylsulfoxide (DMSO). A 20 μl aliquot of the 10 mM solutions was transferred to individual wells in column 1 of a 96-well polypropylene microtiter plate (Corning #3363) and diluted with DMSO to give a final compound concentration of 4 mM. Test compounds were then serially diluted 1:5 in DMSO for an 11-point concentration response and further diluted in the assay buffer bringing all compound concentrations to a final range of 100 μM to […] in 2.5% DMSO. The assay was performed in white 96-well, flat-bottom, half-area, non-binding assay plate (Corning #3642) in assay buffer consisting of 20 mM HEPES (pH 7.5), 10 mM MgCl2*6H2O, 100 μM sodium orthovanadate, 0.05% CHAPS and 0.1% bovine serum albumin. A 10 μL aliquot of compound from each well of the intermediate dilution plate and 20 μL of a 2× substrate/enzyme solution containing acceptor substrate (800 nM RSK2 peptide […] (SEQ ID NO: 1)), ROCK2 enzyme (10 nM), or ROCK1 enzyme, and 1,4-Dithiothreitol (DTT, 2 uM) were added to all wells. The reaction was initiated by the addition of 10 μL of 4× stock solution ATP (2 μM). Reactions were thoroughly mixed manually, covered and allowed to incubate at room temperature for 75 min. Protein kinase activity was quantitated using Promega's KINASE-GLO™ luminescent Kinase Assay Kit according to the manufacturer's directions. ATP concentrations remaining in Test wells following the termination of the enzymatic reaction were compared against control wells containing equivalent amounts of DMSO containing no inhibitor (CTRL). […] Percent of Control (POC) values were determined for each concentration of compound tested according to the equation: POC=((Test well value−BKG)/(CTRL−BKG))*100
IC50 values were converted to K; […]

Sequence of JAK2 (O60674 whole entry, species assumed, canonical isoform): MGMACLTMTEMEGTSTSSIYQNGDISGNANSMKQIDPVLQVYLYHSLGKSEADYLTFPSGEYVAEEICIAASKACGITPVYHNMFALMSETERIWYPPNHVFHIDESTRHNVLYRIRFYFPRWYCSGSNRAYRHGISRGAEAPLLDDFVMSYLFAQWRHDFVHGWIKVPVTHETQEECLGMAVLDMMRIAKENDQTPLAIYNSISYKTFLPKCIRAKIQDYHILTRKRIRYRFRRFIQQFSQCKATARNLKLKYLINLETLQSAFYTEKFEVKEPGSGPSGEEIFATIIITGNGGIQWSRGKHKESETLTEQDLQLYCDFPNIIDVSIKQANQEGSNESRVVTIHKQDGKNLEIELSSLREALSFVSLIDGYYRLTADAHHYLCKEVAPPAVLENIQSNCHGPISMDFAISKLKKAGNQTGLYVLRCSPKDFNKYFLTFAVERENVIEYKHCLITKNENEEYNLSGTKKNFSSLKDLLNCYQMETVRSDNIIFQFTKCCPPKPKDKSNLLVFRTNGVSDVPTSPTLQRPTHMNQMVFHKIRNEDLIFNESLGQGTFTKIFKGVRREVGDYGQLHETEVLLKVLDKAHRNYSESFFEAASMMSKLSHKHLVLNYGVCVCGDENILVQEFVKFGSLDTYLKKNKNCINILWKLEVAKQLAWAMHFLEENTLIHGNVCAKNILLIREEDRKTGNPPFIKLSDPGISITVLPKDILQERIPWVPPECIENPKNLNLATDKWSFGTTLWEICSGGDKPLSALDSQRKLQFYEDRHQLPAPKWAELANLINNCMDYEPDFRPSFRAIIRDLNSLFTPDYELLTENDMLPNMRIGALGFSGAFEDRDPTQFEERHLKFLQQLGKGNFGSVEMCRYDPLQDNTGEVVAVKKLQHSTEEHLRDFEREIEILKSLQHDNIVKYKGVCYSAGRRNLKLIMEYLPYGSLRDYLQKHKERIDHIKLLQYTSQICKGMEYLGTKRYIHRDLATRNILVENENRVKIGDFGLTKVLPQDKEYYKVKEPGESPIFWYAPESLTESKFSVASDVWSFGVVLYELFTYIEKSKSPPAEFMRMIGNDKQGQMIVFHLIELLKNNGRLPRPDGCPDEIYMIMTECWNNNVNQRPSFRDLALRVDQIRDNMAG
Sequence of ROCK2 (O75116 whole entry, species assumed): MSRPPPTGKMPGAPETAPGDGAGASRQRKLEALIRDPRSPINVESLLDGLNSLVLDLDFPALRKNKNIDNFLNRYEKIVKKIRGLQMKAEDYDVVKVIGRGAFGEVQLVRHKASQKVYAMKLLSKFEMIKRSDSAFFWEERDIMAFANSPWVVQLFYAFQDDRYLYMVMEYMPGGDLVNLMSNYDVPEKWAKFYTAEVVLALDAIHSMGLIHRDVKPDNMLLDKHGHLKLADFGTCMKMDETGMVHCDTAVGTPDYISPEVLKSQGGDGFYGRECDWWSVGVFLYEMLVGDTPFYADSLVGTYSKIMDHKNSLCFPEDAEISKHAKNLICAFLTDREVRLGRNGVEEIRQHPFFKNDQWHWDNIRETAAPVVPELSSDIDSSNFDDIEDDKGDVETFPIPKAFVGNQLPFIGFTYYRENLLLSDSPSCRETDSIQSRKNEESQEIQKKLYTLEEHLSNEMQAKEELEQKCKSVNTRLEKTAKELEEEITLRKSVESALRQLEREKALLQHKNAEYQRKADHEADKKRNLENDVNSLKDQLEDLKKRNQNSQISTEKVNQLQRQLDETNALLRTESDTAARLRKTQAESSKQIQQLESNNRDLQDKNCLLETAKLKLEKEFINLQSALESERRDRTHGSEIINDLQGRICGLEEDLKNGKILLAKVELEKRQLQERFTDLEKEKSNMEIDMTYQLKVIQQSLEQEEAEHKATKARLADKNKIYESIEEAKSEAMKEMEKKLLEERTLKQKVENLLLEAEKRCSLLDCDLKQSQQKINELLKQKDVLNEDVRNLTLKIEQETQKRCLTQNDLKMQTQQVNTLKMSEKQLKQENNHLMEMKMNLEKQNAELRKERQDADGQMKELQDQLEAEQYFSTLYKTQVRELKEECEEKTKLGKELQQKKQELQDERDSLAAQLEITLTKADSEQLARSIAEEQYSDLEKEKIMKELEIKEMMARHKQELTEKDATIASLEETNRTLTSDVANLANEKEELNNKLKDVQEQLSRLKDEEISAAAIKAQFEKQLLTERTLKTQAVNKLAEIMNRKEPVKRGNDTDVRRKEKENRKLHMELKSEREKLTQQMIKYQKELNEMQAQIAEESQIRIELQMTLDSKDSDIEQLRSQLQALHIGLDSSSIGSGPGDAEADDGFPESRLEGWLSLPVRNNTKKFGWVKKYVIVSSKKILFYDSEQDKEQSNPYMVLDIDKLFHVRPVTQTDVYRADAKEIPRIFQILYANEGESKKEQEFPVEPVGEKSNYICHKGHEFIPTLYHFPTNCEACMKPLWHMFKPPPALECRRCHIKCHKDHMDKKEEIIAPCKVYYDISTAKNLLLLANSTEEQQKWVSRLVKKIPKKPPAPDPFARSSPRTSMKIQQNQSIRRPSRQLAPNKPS
Sequence of ROCK1 (Q13464 whole entry, species assumed): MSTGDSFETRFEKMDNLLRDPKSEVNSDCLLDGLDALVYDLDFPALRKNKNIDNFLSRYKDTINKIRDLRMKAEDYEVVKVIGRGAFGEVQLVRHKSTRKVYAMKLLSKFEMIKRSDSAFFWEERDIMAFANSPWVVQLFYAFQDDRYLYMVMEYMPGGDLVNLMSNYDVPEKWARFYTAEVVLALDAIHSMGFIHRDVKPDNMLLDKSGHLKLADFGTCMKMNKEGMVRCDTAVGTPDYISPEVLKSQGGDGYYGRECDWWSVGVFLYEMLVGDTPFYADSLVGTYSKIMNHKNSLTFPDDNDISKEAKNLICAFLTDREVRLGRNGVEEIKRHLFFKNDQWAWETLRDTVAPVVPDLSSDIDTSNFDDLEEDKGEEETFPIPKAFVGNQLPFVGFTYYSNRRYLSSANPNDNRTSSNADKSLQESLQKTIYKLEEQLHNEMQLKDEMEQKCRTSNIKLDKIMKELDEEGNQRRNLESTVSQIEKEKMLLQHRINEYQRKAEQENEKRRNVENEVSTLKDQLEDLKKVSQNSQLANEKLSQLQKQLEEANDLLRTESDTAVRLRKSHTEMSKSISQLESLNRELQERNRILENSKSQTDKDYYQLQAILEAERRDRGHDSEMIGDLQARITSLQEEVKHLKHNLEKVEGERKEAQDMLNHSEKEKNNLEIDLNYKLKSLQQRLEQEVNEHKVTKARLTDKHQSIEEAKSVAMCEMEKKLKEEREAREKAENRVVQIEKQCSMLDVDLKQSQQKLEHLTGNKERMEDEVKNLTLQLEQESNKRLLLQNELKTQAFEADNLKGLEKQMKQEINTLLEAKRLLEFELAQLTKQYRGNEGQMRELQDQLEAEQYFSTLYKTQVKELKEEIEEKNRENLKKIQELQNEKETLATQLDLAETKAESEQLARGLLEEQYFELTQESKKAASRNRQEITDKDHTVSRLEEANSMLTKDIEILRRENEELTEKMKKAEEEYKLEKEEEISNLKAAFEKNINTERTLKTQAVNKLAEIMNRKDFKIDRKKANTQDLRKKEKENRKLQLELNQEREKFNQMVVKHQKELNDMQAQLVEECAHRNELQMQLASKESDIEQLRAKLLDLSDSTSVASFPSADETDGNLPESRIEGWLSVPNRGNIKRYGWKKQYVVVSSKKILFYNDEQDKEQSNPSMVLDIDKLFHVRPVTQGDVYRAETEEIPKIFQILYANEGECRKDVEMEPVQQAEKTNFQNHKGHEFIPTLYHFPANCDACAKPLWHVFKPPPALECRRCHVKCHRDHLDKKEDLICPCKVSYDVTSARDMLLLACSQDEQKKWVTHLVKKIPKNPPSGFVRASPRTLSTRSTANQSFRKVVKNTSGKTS

SMILES	Ki ([2]; ROCK1, Table 17) [nM]	Ki ([3]; ROCK2, Table 17) [nM]	Ki ([2]; ROCK1, Table 16) [nM]	Ki ([3]; ROCK2, Table 16) [nM]	further results
O=C(Nc1ccc2cnccc2c1)[C@@H]1C[C@H]1c1ccc(S(=O)(=O)Nc2ccccn2)cc1 (racemic)	–	–	–	–	Ki ([1]; Table 17, read-out: JAK3): 12 nM
O=C(Nc1ccc2cnccc2c1)[C@@H]1C[C@H]1c1ccc(S(=O)(=O)Nc2ccccc2)cc1 (racemic) [(rel)-(1R,2R)-N-(isoquinolin-6-yl)-2-(4-(N-phenylsulfamoyl)phenyl)cyclopropane-1-carboxamide]	154	75	–	–	–
O=C(Nc1ccc2cncc(Cl)c2c1)[C@@H]1C[C@H]1c1ccc(S(=O)(=O)NC[C@@H]2CCCNC2)cc1 (relative stereo) [(rel)-(1R,2R)-N-(4-chloroisoquinolin-6-yl)-2-(4-(N-(((R)-piperidin-3-yl)methyl)sulfamoyl)phenyl)cyclopropane-1-carboxamide dihydrochloride]	–	–	–	–	Ki ([1]; Table 17, read-out: JAK3): 160 nM
O=C(Nc1ccc2cnccc2c1)[C@@H]1C[C@H]1c1ccc(S(=O)(=O)NCC2CCNCC2)cc1 (relative stereo) [drawing 663, (rel)-(1R,2R)-N-(isoquinolin-6-yl)-2-(4-(N-(piperidin-4-ylmethyl)sulfamoyl)phenyl) cyclopropane-1-carboxamide dihydrochloride]	9	8	–	–	–
O=C(Nc1ccc2cnccc2c1)[C@@H]1C[C@H]1c1ccc(I)cc1 (relative stereo) [drawing 670, (rel)-(1R,2R)-2-(4-iodophenyl)-N-(isoquinolin-6-yl)cyclopropane-1-carboxamide]	270	175	–	–	Ki ([4]; Table 17, read-out: JAK2): 650 nM
O=C(Nc1ccc2cnccc2c1)[C@@H]1C[C@H]1c1ccc(S(=O)(=O)Nc2ccccn2)cc1 (single isomer, unassigned) [Example E266]	–	–	9	–	Ki ([1]; Table 16, read-out: JAK3): 12 nM
O=C(Nc1ccc2cnccc2c1)[C@@H]1C[C@H]1c1ccc(S(=O)(=O)Nc2ccccn2)cc1 (single isomer, unassigned) [Example E267]	–	–	–	–	Ki ([1]; Table 16, read-out: JAK3): 5.8 nM
O=C(NCc1ccccn1)c1ccc(C2CC(=O)N(c3ccc4cnccc4c3)C2)cc1 (stereo not drawn) [Example E233]	–	–	–	–	Ki ([4]; Table 15, in brackets in the activity cell, read-out: JAK2 activity): 5800 to 13500 nM; Ki ([1]; Table 15, in brackets in the activity cell, read-out: JAK3 activity): 3400 to 3800 nM; Ki [5]: 4350 to 8400 nM
O=C(Nc1ccc2cnccc2c1)[C@@H]1C[C@H]1c1ccc(S(=O)(=O)Nc2ccccc2)cc1 [Example E265]	–	–	154	75	–
O=C(Nc1ccc2cnccc2c1)[C@@H]1C[C@H]1c1ccc(S(=O)(=O)Nc2cccnc2)cc1 [Example E268]	–	–	85	24	–
O=C(Nc1ccc2cnccc2c1)[C@@H]1C[C@H]1c1ccc(S(=O)(=O)NCC2CCNCC2)cc1 [Example E271]	–	–	9	8	–
O=C(Nc1ccc2cncc(Cl)c2c1)[C@@H]1C[C@H]1c1ccc(S(=O)(=O)NC[C@@H]2CCCNC2)cc1 [Example E274]	–	–	–	–	Ki ([1]; Table 16, read-out: JAK3): 160 nM
O=C(Nc1ccc2cnccc2c1)[C@@H]1C[C@H]1c1ccc(I)cc1 [Example E277]	–	–	270	175	Ki ([4]; Table 16, read-out: JAK2): 650 nM
O=C(Nc1ccc2cnccc2c1)[C@@H]1C[C@H]1c1cccc(S(=O)(=O)Nc2ccccn2)c1 [Example E279]	–	–	11	–	–
O=C(Nc1ccc2cnccc2c1)[C@@H]1C[C@H]1c1ccc(F)c(S(=O)(=O)Nc2ccccn2)c1 [Example E280]	–	–	15	12.5	Ki ([4]; Table 16, read-out: JAK2): 1400 nM; Ki ([1]; Table 16, read-out: JAK3): 1060 nM
O=C(Nc1ccc2cnccc2c1)[C@@H]1C[C@H]1c1ccc(F)c(S(=O)(=O)Nc2ccccc2)c1 [Example E281]	–	–	150	240	Ki ([4]; Table 16, read-out: JAK2): 3000 nM; Ki ([1]; Table 16, read-out: JAK3): 7500 nM
O=C(Nc1ccc2cncc(Cl)c2c1)[C@@H]1C[C@H]1c1ccc(S(=O)(=O)NC[C@@H]2CCCNC2)cc1 [drawing 666]	–	–	–	–	Ki ([1]; Table 17, read-out: JAK3): 160 nM
O=C(Nc1ccc2cnccc2c1)[C@@H]1C[C@H]1c1ccc(F)c(S(=O)(=O)Nc2ccccn2)c1 [drawing 673]	15	12.5	–	–	Ki ([4]; Table 17, read-out: JAK2): 1400 nM; Ki ([1]; Table 17, read-out: JAK3): 1060 nM

Now from value to compound, other results behind:

Ki ([2]; ROCK1, Table 17) [nM]	Ki ([3]; ROCK2, Table 17) [nM]	Ki ([2]; ROCK1, Table 16) [nM]	Ki ([3]; ROCK2, Table 16) [nM]	SMILES	further results
4	4	–	–	O=C(Nc1ccc2cnccc2c1)[C@@H]1C[C@H]1c1ccc(S(=O)(=O)NC[C@@H]2CCCNC2)cc1 (relative stereo) [(rel)-(1R,2R)-N-(isoquinolin-6-yl)-2-(4-(N-(((R)-piperidin-3-yl)methyl)sulfamoyl)phenyl) cyclopropane-1-carboxamide dihydrochloride]	Ki ([1]; Table 17, read-out: JAK3): 1140 nM
5	5	–	–	O=C(Nc1ccc2cnccc2c1)[C@@H]1C[C@H]1c1ccc(S(=O)(=O)NC[C@H]2CCCNC2)cc1 (relative stereo) [(rel)-(1R,2R)-N-(isoquinolin-6-yl)-2-(4-(N-(((S)-piperidin-3-yl)methyl)sulfamoyl)phenyl) cyclopropane-1-carboxamide dihydrochloride]	–
8.2	7	–	–	O=C(Nc1ccc2cnccc2c1)[C@@H]1C[C@H]1c1ccc(S(=O)(=O)NC2CCNCC2)cc1 (relative stereo) [(rel)-(1R,2R)-N-(isoquinolin-6-yl)-2-(4-(N-(piperidin-4-yl)sulfamoyl)phenyl) cyclopropane-1-carboxamide dihydrochloride]	–
25	9	–	–	O=C(Nc1ccc2cnccc2c1)[C@@H]1C[C@H]1c1ccc(S(=O)(=O)NCc2cccnc2)cc1 (relative stereo) [(rel)-(1R,2R)-N-(isoquinolin-6-yl)-2-(4-(N-(pyridin-3-ylmethyl)sulfamoyl)phenyl) cyclopropane-1-carboxamide]	–
48	31	–	–	O=C(Nc1ccc2cnccc2c1)[C@@H]1C[C@H]1c1ccc(S(=O)(=O)N2CCNCC2)cc1 (relative stereo) [(rel)-(1R,2R)-N-(isoquinolin-6-yl)-2-(4-(piperazin-1-ylsulfonyl)phenyl) cyclopropane-1-carboxamide dihydrochloride]	–
–	–	25	9	O=C(Nc1ccc2cnccc2c1)[C@@H]1C[C@H]1c1ccc(S(=O)(=O)NCc2cccnc2)cc1 [Example E269]	–
–	–	5	5	O=C(Nc1ccc2cnccc2c1)[C@@H]1C[C@H]1c1ccc(S(=O)(=O)NC[C@H]2CCCNC2)cc1 [Example E272]	–
–	–	4	4	O=C(Nc1ccc2cnccc2c1)[C@@H]1C[C@H]1c1ccc(S(=O)(=O)NC[C@@H]2CCCNC2)cc1 [Example E273]	Ki ([1]; Table 16, read-out: JAK3): 1140 nM
–	–	8.2	7	O=C(Nc1ccc2cnccc2c1)[C@@H]1C[C@H]1c1ccc(S(=O)(=O)NC2CCNCC2)cc1 [Example E275]	–
–	–	48	31	O=C(Nc1ccc2cnccc2c1)[C@@H]1C[C@H]1c1ccc(S(=O)(=O)N2CCNCC2)cc1 [Example E276]	–
85	24	–	–	O=C(Nc1ccc2cnccc2c1)[C@@H]1C[C@H]1c1ccc(S(=O)(=O)Nc2cccnc2)cc1 [drawing 658]	–

Source: US10858339B2, “Aryl cyclopropyl-amino-isoquinolinyl amide compounds” (priority 2017, dated 2020)
